In patent publication US20250090551A1, “BUDESONIDE 21-PHOSPHATE SODIUM SALT FOR USE AS ANTI-INFLAMMATORY OR ANTIASTHMATIC AGENT” (GENETIC S.P.A., priority 2021, published 2025):
≈ marks a conversion by molar mass, not a printed value.

What was measured:
[1] = tested on: carrageenan-induced paw edema in CD-1 mice; assay: Carrageenan-induced paw edema; assay type: in vivo; settings: first phase; for time after carrageenan at which the significant inhibition level is reached (onset of effect): dose of 0.3 mg/kg, i.p.; for dose relation of anti-inflammatory effect / maximum inhibition of edema: doses 0.1, 0.3, 1 mg/kg i.p.; for maximum inhibition of edema: Bud-21 P—Na2 maximum with either 0.3 or 1 mg/kg
Procedure: In Protocol 1 (paw edema), the test compounds budesonide (Bud) and budesonide 21-phosphate sodium salt (Bud 21-P Na2) have been tested. Both compounds were administered in a volume of 100 μl intraperitoneally 1 hour before the induction of the inflammatory reaction. Doses of 0.1, 0.3 e 1 mg/kg were tested.
Carrageenan edema in the paw of the CD-1 mice involves the sub-plantar administration of 50 μl of 1% carrageenan and the measurement of the increase in the volume of the paw by using a hydroplethysmometer. This experimental model has a biphasic development (Posadas et al., Br J Pharmacol 2004 May; 142(2):331-338). The first phase, which is acute, is sustained by an increase in permeability accompanied by infiltration of neutrophils, which develops and resolves between 4 and 5 hours. The second phase occurs after 24 hours and is characterized by macrophage infiltration and has the characteristics of sub chronic inflammation, which reaches its maximum after 72 hours and resolves after 5 days. Bud and Bud 21-P Na2 have been tested. Both compounds were administered in a volume of 100 μl intraperitoneally 1 hour before the induction of the inflammatory reaction. Doses of 0.1, 0.3 e 1 mg/kg were tested.

[2] = tested on: methacholine-induced bronchoconstriction in OVA-induced allergic Balb/c mice; assay: Lung hyperreactivity / Penh function in OVA-induced allergic asthma; assay type: in vivo; settings: 3, 10 and 30 nmol/animal/day i.n., 4 weeks; vs untreated OVA group
Procedure: (§1) In Protocol 2, the test compounds Bud (MW: 430.53 g/mol) and Bud-21 P Na2 (MW: 554.48 g/mol) were administered at equimolar doses of 3, 10 and 30 nmol/animal/day, equivalent to 1.3, 4.3 and 12.9 μg/animal/day of Bud, 1.7, 5.5 and […] of Bud-21 P Na2, respectively. The compounds were dissolved in 10% sterile saline+90% DMSO (Sigma Chemical Co., St. Louis, MO) at the correspondent concentrations at which the above-mentioned doses per animal result from the intra-nasal (i.n.) administration of 10 μl/animal (5 μl/nostril) of each of the solutions.
Chicken egg-white ovalbumin (OVA; grade V, cat. A5503, Sigma Chemical Co., St. Louis, MO) was dissolved in sterile phosphate buffered saline (PBS) solution (250 μg/ml) and Al(OH)3 was added (at 13 mg/ml). This mix was used to induce the allergic sensitization of the animals by subcutaneous injection. OVA was dissolved at 1% in sterile PBS solution and this solution was nebulized (as the immunological challenges).
Mice were sensitized with two subcutaneous injections of 0.2 ml of OVA/Al(OH)3, with an interval of 7 days (Sham animals received the Al(OH)3 suspension in PBS with no OVA). Seven days after the second sensitization (i.e., 3rd week), the animals were nebulized twice a week with the 1% OVA solution (Sham and untreated OVA groups were nebulized with PBS) during 20 minutes for the next […].
Three hours after the challenges (OVA nebulization) and daily during the next 4 weeks (following the first OVA challenge), mice were intra-nasally treated (10 μl/animal as 5 μl/nostril) with the respective compounds/vehicle, and the last dose was administered 30 min before the Penh measurement at the end of the 6th week.
Airway responsiveness in conscious, spontaneously breathing animals was measured at the end of the 6th week (i.e., after 4-week OVA challenges+treatments), 24 h after the last OVA/PBS challenge via whole body plethysmography (Buxco Europe Ltd, Winchester, UK), as previously described (Santos et al., 2014). Experiments were carried out in a quiet room by an investigator who was unaware of the nature of treatments.
Aerosolized saline (50 μl/mouse during 60 s) and then the muscarinic agonist methacholine (MCh) at increasing concentrations (3.12, 6.25, 12.5 and 25.0 mg/ml in PBS) was nebulized through an inlet of the main chamber for 3 min each to induce bronchoconstriction and readings were taken and averaged for 6 min following each nebulization. After 20 min, the baseline values usually returned at the end of this period. Enhanced pause (Penh) was measured as an indicator of bronchoconstriction and consequent increase of airway resistance as: Penh=[(expiration time/relaxation time)−1]/(maximum expiration flow/maximum inspiration flow).

[3] = tested on: leukocyte recruitment to the bronchoalveolar space in OVA-induced allergic Balb/c mice; assay: BAL fluid total and differential leukocyte counts in OVA-induced allergic asthma; assay type: in vivo; settings: 4 weeks, vs Sham
Procedure: as §1
Mice were sensitized with two subcutaneous injections of 0.2 ml of OVA/Al(OH)3, with an interval of 7 days (Sham animals received the Al(OH)3 suspension in PBS with no OVA). Seven days after the second sensitization (i.e., 3rd week), the animals were nebulized twice a week with the 1% OVA solution (Sham and untreated OVA groups were nebulized with PBS) during 20 minutes for the next […]. […]
After Penh evaluation, the mice were anesthetized with inhaled isofluorane (5% v/v in O2) and blood samples were collected from the descending abdominal aorta. […] Total cell counts were determined using a Neubauer chamber, and differential counting was carried out in cytospin (Fanem Mod 2400; Sao Paulo, Brazil) preparations stained with May-Grünwald dye. […]

[4] = tested on: BK- and C48/80-induced plasma extravasation in dorsal skin of C57Bl/6 mice; assay: Skin edema (plasma extravasation, Evans blue method) induced by BK or C48/80; assay type: in vivo; settings: for BK-induced plasma extravasation / reduction of C48/80-induced plasma extravasation: 2.32 μmol/kg i.p. (1.0 mg/kg Bud, 1.3 mg/kg Bud-21 P—Na2) 60 min before i.d. injection, 30 min
Procedure: In Protocol 3, Bud (at doses of 1.0 and 0.30 mg/kg) and Bud 21-P Na2 (at doses of 1.3 and 0.39 mg/kg) were administered on a molar base, these doses were equivalent to […] μmol/kg of each compound, respectively. The vehicle for dissolution of the compounds was sterile saline solution (0.9% NaCl) containing 12.5% DMSO (Sigma Chemical Co., St. Louis, MO). The compound solutions were prepared at concentrations such that the administered dose per kg of body weight results from the intraperitoneal (i.p.) administration of 10 ml/kg of each of the solutions.
Skin edema was assessed in mice according to the method previously described by Costa et al. (2006), Vasc. Pharmacol; 45: 209-214 and Yshii et al (2009), Toxicon; 53: 42-52. The mice were anesthetized with urethane (25% w/v, 10 ml/kg, i.p.), had their dorsal skin shaved, and thereafter i.p. treated with the vehicle/test compounds. Fifty-five minutes later, a volume of 100 μL of Evans blue dye solution (0.25% in sterile saline) was intravenously (i.v.) injected via the tail vein. Five minutes later, the BK and C48/80 were intradermally (i.d.) injected into the dorsal skin at a fixed volume of 50 μl using a randomized scheme. The same volume of Tyrode solution 50 μl was injected as a control. Thirty minutes later, a 1 ml blood sample was obtained via cardiac puncture and the mice were killed by urethane overdose followed by cervical dislocation. The blood samples were centrifuged at 6,000 g for 4 min to obtain the plasma. The dorsal skin was removed, and the injected sites were punched out using an 8 mm diameter cork borer. A non-injected skin site distant from the injection sites was also punched and taken as a blank. The dye was extracted from each piece of skin and plasma (100 μl) samples using formamide, and the absorbance of the resulting solutions was measured at 620 nm. The plasma extravasation due to each agent (expressed in μl/site) was calculated as the ratio between the absorbance of each respective skin piece, corrected by the blank value and plasma sample solutions, properly adjusted by the dilution factors [Vasc. Pharmacol (2006); 45: 209-214]. To homogenate data due to the variability of different group of animals (inter-group variations), edema data are expressed as the fold-change response relative to the mean Tyrode (control) response of each experiment.

[5] = cited from earlier work
[6] = at physiological pH in the intestinal region; cited from earlier work
[7] = 0.70 μmol/kg i.p. (0.30 mg/kg Bud, 0.39 mg/kg Bud-21 P—Na2)

| Molecule | time after carrageenan at which the significant inhibition level is reached (onset of effect) [1] [h] | dose relation of anti-inflammatory effect [1] | maximum inhibition of edema [1] | Penh AUC (area under Penh vs methacholine curve) [2] | Penh Emax (maximal response) [2] | total BAL leukocytes compared with Sham ([3]; 3 nmol/animal/day i.n.) | BAL macrophages compared with Sham ([3]; either 3 or 10 nmol/animal/day i.n.) | BK-induced edema [4, 7] | C48/80-induced edema [4, 7] | BK-induced plasma extravasation [4] | reduction of C48/80-induced plasma extravasation [4] | logP [5] | solubility in water [6] [µg/mL] | inhibition of edema formation ([1]; 0.1 mg/kg i.p. 60 min before carrageenan) [%] |
| --- | --- | --- | --- | --- | --- | --- | --- | --- | --- | --- | --- | --- | --- | --- |
| CCCC1OC2CC3C4CCC5=CC(=O)C=CC5(C)C4C(O)CC3(C)C2(C(=O)CO)O1 (stereo not drawn) [Bud, 11β,21-dihydroxy-16α,17α-(butylidenebis(oxy))pregna-1,4-diene-3,20-dione] | 6 | not dose-related | about 50% | significant reduction of this response just at the highest dose | significant reduction of this response just at the highest dose | still significantly higher than that observed in the Sham mice | still significantly higher than those observed in the Sham group | ineffective | ineffective | abolished | approximately 50% | 3.2 | 28 (≈ 65 µM) |  |
| Budesonide 21-phosphate sodium salt [Bud-21 P—Na2] | 2 | dose-related anti-inflammatory effect | 70% | significantly reduced | significantly reduced |  |  |  | significantly inhibited | abolished | approximately 50% |  |  | 50 |
